Assay [1] has as its system myoclonic seizures induced in mice by the administration of bicuculline. Put plainly: BICM test: antagonism of myoclonic seizures induced in mice by bicuculline. Format: in vivo. The note with it: female mice, 1 h before (+)-bicuculline 0.55 mg/kg i.v.; for ED50: Mus musculus, oral, dose inhibiting seizures in 50% of the animals; for % protection from bicuculline-induced seizures: figure in brackets, 100 mg/kg (po). The source says:
The ability of the compounds to antagonise the myoclonic seizures induced in mice by the administration of bicuculline was observed. Hereinafter, this test is referred to as "BICM".
In the BICM experiments groups of female mice in the weight range 25 to 30 grammes had free access to food and water until one hour before administration of the compound to be tested. The compound to be tested was orally administered at one or more doses in 1% aqueous methylcellulose solution. One hour later (+)-bicuculline at a dose of 0.55 mg/kg was administered intravenously into a tail vein. Such a dose of (+)-bicuculline would generally be expected to induce a seizure in the mice.
During the following two minutes the animals were observed and the percentage of animals in which seizures had been inhibited was recorded. Thus, the greater the anticonvulsant activity of the compound, the higher was the percentage recorded in the BICM test.
A value for the dose inhibiting the seizures in 50% of the animals (ED50) was calculated from the regression straight line plot of the percentage of animals in which seizures were inhibited against the dose of compound.

Assay [2] concerns seizures in mice induced by a maximal electroshock. In words: MESM test: inhibition of seizures in mice induced by a maximal electroshock. The note with it: male mice, 1 h before electroshock (99 mA, 50 Hz, 1.0 second); for ED50: Mus musculus, oral, dose inhibiting seizures in 50% of the mice; for % protection from MES-induced seizure: figure in brackets, 100 mg/kg (po). Format: in vivo. Here is the method: The ability of the compounds to inhibit seizures in mice induced by a maximal electroshock was observed. Hereinafter, this test is referred to as `MESM`.
In the MESM experiments, groups of male mice in the weight range 25 to 30 grammes had free access to food and water until the start of the experiment. The mice were divided into two groups, a control group and a test group to which a compound of formula I or II would be administered. The control group received an oral dose of 10 ml/kg of a vehicle of 1% aqueous methyl cellulose solution. […] One hour after administration of all drugs an electroshock of duration 1.0 second was administered to all the mice in both groups through ear clip electrodes moistened with saline. […] Such a shock would generally be expected to induce a seizure in the mice.
The greater the anticonvulsant activity of the compound of formula I or II, the higher was the percentage recorded in the MESM test.
If results at more than one dose were available, then a value for the dose inhibiting seizures in 50% of the mice (ED50) was calculated from the regression straight line plot of the percentage of mice in which seizures were inhibited against the dose of the compound of formula I or II administered.
A general note: Protection in the maximal electroshock model is a classic sign of anticonvulsant action.

The term ED50 denotes the dose that gives a 50% effect, or the effect in half of the subjects.

In assay [1], `CC(C)(C)c1nccc(-c2nn(-c3ccc(F)cc3)ccc2=O)n1` [Example 1, 3-(2-Tert-butylpyrimidin-4-yl)-1-(4-fluorophenyl)pyridazin-4(1H)-one] displayed an ED50 of 4.7 mg/kg.

Consider `CC(C)c1nccc(-c2nn(-c3ccc(F)cc3)ccc2=O)n1` [Example 2, 3-(2-isopropylpyrimidin-4-yl)-1-(4-fluorophenyl)pyridazin-4(1H)-one], for which the ED50 in assay [1] came to 4.6 mg/kg; in assay [2] it was 83.4 mg/kg.

As for `O=c1ccn(-c2ccc(F)cc2)nc1-c1ccnc(-c2ccccc2)n1` [Example 3, 3-(2-phenylpyrimidin-4-yl)-1-(4-fluorophenyl)pyridazin-4(1H)-one], the “% protection from MES-induced seizure” value in assay [2] came out at 50%.

For the compound `O=c1ccn(-c2ccc(Cl)cc2Cl)nc1-c1ccncn1` [Example 4, 3-(pyrimidin-4-yl)-1-(2,4-dichlorophenyl)pyridazin-4(1H)-one], the figures for the ED50 in assay [1] and in assay [2] were 158 mg/kg and 73.6 mg/kg, respectively.

Turning to `CC(C)c1nccc(-c2nn(-c3ccc(Cl)cc3)ccc2=O)n1` [Example 5, 3-(2-isopropylpyrimidin-4-yl)-1-(4-chlorophenyl)pyridazin-4(1H)-one], it took a dose of 11.8 mg/kg to reach the 50% effect level in assay [1] (ED50). For the same compound, in assay [2], the “% protection from MES-induced seizure” value is recorded as 50%.

With `O=c1ccn(-c2ccc(Cl)cc2)nc1-c1ccnc(C2CC2)n1` [Example 6, 3-(2-cyclopropylpyrimidin-4-yl)-1-(4-chlorophenyl)pyridazin-4(1H)-one], the “% protection from bicuculline-induced seizures” value in assay [1] was determined as 60%.

For the compound `O=c1ccn(-c2ccc(F)cc2)nc1-c1ccnc(C2CCCCC2)n1` [Example 7, 3-(2-cyclohexylpyrimidin-4-yl)-1-(4-fluorophenyl)pyridazin-4(1H)-one], the “% protection from bicuculline-induced seizures” value in assay [1] is reported as 70%.

As to `O=c1ccn(-c2ccc(Cl)cc2)nc1-c1ccnc(C2CCCCC2)n1` [Example 8, 3-(2-cyclohexylpyrimidin-4-yl)-1-(4-chlorophenyl)pyridazin-4(1H)-one], the 50% effect level in assay [1] (ED50) was put at a dose of 12.9 mg/kg.

Regarding `CCCc1nccc(-c2nn(-c3ccc(F)cc3)ccc2=O)n1` [Example 9, 3-(2-propylpyrimidin-4-yl)-1-(4-fluorophenyl)pyridazin-4(1H)-one], the “% protection from MES-induced seizure” value in assay [2] was 50%.

The values are drawn from US5877175A, “Pharmaceutical compositions” (KNOLL Aktiengesellschaft, priority 1995, dated 1999).
